# Calls of active or inactive are those of the source.
# How the values were obtained:
# [1] = biological target: T1, Dual specificity protein phosphatase 3 (Homo sapiens, UniProt P51452); experiment: VHR1 phosphatase inhibitors, primary screen, biochemical, absorbance, uHTS (AID 1654)
# [2] = biological target: T2, Voltage-gated N-type calcium channel alpha-1B subunit/Amyloid beta A4 precursor protein-binding family A member 1 (Homo sapiens, UniProt Q00975+Q02410); format: protein assay
# [3] = biological target: T2, Voltage-gated N-type calcium channel alpha-1B subunit/Amyloid beta A4 precursor protein-binding family A member 1; format: protein assay; remark: listed apart in the source
# [4] = biological target: T1, Dual specificity protein phosphatase 3; experiment: VHR1 phosphatase inhibitors, biochemical (AID 1878)
# [5] = biological target: T3, Dual specificity protein phosphatase 6 (Rattus norvegicus, UniProt Q64346); experiment: MKP-3 phosphatase inhibitors, primary screen, biochemical, rat enzyme, in vitro (AID 425)
# T3 sequence (Q64346 whole entry): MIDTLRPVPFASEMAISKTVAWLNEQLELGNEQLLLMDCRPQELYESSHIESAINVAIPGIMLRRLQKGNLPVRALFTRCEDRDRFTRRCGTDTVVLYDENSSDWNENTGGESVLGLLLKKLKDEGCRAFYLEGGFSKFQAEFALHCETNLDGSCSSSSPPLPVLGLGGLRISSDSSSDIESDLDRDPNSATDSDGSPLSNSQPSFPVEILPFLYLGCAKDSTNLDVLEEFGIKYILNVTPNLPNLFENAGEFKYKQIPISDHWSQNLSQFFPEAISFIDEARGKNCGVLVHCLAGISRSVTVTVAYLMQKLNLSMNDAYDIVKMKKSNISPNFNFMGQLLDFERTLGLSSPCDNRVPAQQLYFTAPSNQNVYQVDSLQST
# [6] = biological target: Induced myeloid leukemia cell differentiation protein Mcl-1 (Homo sapiens, UniProt Q07820); format: functional
# [7] = biological target: Eukaryotic translation initiation factor 4E (Mus musculus, UniProt P63073); experiment: eIF4E–eIF4G protein interaction inhibitors, dose response, biochemical, TR-FRET (AID 855); format: functional;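 further: potency for disrupting eIF4E binding to eIF4GI seen as loss of FRET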
# [8] = biological target: T4, Polyadenylate-binding protein 1 (Homo sapiens, UniProt P11940); experiment: PABP1 MLLE–PAM2 interaction inhibitors, dose response, miRNA deadenylation inhibitor project, biochemical, fluorescence polarization, Cy5-PAM2 peptide, secondary (AID 602260); format: functional; details: read-out: IC50_Mean
# [9] = biological target: T4, Polyadenylate-binding protein 1; experiment: PABP1 MLLE–PAM2 binding inhibitor potency, dose response, biochemical, fluorescence polarization, FITC-PAM2 peptide (AID 602259); format: functional; details: read-out: IC50_Mean
# [10] = inhibitors of intracellular T. cruzi replication, confirmation, NIH3T3 host cells, beta-gal luminescence (AID 2044); format: functional, cell-based;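 further: intracellular parasites grown in NIH/3T3 mouse fibroblasts as host cells; luminescent beta-galactosidase reporter signal from transgenic T. cruzi replicating inside host cells; inhibitors lower the luminescence signal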
# [11] = biological target: T5, Calpain-2 catalytic subunit (Sus scrofa, UniProt P43367); experiment: pig calpain II inhibitor potency, dose response, biochemical, fluorogenic peptide substrate (AID 1420); format: functional
# T5 sequence (P43367 whole entry): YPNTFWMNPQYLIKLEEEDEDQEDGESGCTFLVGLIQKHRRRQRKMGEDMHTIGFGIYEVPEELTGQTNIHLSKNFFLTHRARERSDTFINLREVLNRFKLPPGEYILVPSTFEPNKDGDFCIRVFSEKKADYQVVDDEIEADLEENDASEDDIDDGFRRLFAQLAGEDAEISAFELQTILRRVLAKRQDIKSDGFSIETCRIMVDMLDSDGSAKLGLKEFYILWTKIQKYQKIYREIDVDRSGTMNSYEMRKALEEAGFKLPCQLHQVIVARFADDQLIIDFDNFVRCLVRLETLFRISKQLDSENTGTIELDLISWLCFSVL
# [12] = cytotoxicity toward NIH3T3 fibroblasts, dose response, counter-screen, cell-based, ATP luminescence, mouse fibroblasts (AID 2010); format: functional;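 further: cells exposed to compound for about 90 hours before reading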
# [13] = Intein inhibitors as potential Tuberculosis drugs, a cytotoxicity screen. [Related pubchem assays (depositor defined):AID2221, AID2223, AID434968, AID435010, AID449749, AID449750, AID489010]; format: functional
# [14] = biological target: T6, Replicative DNA helicase DnaB (Mycobacterium tuberculosis, UniProt P9WMR3); experiment: DnaB intein splicing inhibitors, dose response, biochemical, cell-free fluorescence (AID 449749); format: functional
# T6 sequence (P9WMR3 whole entry): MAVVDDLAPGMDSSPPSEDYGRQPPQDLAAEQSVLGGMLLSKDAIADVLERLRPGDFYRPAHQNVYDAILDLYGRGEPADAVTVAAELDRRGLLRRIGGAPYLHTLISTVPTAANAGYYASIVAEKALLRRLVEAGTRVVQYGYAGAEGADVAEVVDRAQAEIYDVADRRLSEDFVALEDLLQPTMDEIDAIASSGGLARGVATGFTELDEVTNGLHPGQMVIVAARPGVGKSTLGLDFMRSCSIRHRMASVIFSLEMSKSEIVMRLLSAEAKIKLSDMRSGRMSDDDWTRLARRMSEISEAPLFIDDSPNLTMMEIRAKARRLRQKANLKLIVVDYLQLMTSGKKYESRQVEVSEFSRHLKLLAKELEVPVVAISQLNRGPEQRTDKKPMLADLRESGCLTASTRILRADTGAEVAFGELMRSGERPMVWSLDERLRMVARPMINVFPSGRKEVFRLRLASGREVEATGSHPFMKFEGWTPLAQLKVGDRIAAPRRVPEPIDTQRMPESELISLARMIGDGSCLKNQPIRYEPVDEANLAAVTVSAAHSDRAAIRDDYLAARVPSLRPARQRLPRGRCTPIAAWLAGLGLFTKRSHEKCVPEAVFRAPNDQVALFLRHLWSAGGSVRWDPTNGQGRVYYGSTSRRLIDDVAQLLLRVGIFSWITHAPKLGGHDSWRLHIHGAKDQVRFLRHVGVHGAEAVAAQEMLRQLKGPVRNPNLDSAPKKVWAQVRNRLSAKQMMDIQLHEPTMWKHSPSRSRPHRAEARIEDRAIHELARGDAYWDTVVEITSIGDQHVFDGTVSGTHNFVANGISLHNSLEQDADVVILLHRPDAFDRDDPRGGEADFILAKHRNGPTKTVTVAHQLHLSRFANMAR
# Protein RecA = biological target: T7, Protein RecA (Mycobacterium tuberculosis, UniProt P9WHJ3); experiment: Fluorescence Cell-Free Homogeneous Dose Retest to Identify Inhibitors of RecA-Intein Splicing Activity. [Related pubchem assays (depositor defined):AID2097, AID2223, AID489010, AID492950]; format: functional
# T7 sequence (P9WHJ3 whole entry): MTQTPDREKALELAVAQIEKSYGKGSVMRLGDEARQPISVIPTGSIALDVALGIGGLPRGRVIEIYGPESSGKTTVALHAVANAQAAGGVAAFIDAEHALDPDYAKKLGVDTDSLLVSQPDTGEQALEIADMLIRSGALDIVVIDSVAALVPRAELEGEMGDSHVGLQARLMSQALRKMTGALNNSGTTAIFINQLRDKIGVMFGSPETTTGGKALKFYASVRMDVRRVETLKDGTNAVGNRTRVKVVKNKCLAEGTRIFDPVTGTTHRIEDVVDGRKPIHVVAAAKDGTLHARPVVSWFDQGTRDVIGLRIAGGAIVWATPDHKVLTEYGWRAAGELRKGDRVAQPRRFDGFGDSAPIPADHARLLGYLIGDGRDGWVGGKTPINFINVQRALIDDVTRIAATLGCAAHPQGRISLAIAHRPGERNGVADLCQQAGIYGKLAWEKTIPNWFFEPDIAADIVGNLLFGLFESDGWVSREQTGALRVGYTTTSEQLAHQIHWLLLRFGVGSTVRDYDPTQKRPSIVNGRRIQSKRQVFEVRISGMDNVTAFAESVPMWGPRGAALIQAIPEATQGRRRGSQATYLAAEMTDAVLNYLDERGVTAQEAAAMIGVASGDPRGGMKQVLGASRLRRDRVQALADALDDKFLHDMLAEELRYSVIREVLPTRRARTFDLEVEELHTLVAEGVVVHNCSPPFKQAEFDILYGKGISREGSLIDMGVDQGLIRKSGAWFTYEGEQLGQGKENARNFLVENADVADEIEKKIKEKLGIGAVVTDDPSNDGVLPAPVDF
# CAAX prenyl protease 2 = CAAX prenyl protease 2 (Saccharomyces cerevisiae S288c, UniProt Q03530); format: biochemical
# [15] = system: Streptococcus sp. 'group A'; experiment: growth inhibition of control SK(-) GAS strain, dose response, counter-screen for streptokinase expression inhibitor project, luminescence, kanamycin, BacTiterGlo, confirmation (AID 1900); format: functional, organism-based
# Streptococcus = experiment: Group A Streptococcus viability loss, dose response, counter-screen for streptokinase expression inhibitor project, luminescence, BacTiterGlo (AID 1915); format: functional, organism-based;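 further: potency for reduction of bacterial viability or growth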
# [16] = THP-1 cell cytotoxicity, dose response, cytotoxicity control for non-replicating M. tuberculosis project (AID 489025); format: functional
# [17] = HepG2 cell cytotoxicity, dose response, cytotoxicity control for non-replicating M. tuberculosis project (AID 489018); format: functional; details: Mycobacterium tuberculosis
# [18] = Vero E6 cell cytotoxicity, dose response, cytotoxicity control for non-replicating M. tuberculosis project, secondary assay (AID 492998); format: functional, VeroE6; details: Vero C1008
# cells [19] = format: functional
# fMet-Leu-Phe receptor = biological target: T8, fMet-Leu-Phe receptor (Homo sapiens, UniProt P21462); experiment: FPR ligands, dose response (AID 519); format: functional
# T8 sequence (P21462 whole entry): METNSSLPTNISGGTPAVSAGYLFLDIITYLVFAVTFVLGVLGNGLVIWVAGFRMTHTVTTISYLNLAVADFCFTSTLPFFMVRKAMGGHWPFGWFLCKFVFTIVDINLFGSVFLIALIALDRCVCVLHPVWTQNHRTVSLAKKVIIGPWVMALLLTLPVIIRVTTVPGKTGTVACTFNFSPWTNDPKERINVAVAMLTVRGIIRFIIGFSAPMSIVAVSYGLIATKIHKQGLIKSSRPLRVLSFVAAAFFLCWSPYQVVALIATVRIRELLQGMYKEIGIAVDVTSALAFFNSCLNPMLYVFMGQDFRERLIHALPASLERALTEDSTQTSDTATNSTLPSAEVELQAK
# Hexokinase = Hexokinase (Trypanosoma brucei, UniProt Q38C41); experiment: Confirmation assay for inhibitors of Trypanosoma brucei hexokinase 1-Analogue-first series. [Related pubchem assays (depositor defined):AID1430, AID1632, AID2516, AID2560, AID2579, AID2600, AID449725, AID492951]; format: functional
# cells [20] = format: functional, cell-based
# [21] = biological target: Luciferin 4-monooxygenase (Photinus pyralis, UniProt P08659); experiment: firefly luciferase enzyme inhibitors, dose response, biochemical, luminescence (AID 1891)
# [22] = Luminescence Cell-Based Dose Confirmation HTS to Identify Inhibitors of Platelet Dense Granule Release. [Related pubchem assays: 1663 (Primary HTS), 1678 (Summary of Project)]; format: functional
# cells [23] = format: functional, cell-based; remark: listed apart in the source
# [24] = biological target: T9, Kappa-type opioid receptor (Homo sapiens, UniProt P41145); format: functional
# Beta-galactosidase = Beta-galactosidase (Escherichia coli, UniProt Q8VNN2); format: functional
# [25] = biological target: T9, Kappa-type opioid receptor; format: functional; remark: listed apart in the source
# INS1 = experiment: beta cell apoptosis inhibitors, cytokine rescue, dose response, luminescence, retest (AID 449756); format: functional, cell-based; details: Rattus norvegicus;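 further: cell death triggered by IL-1 beta plus TNF-alpha plus IFN-gamma mixture; protective hits raise ATP signal compared with cytokine alone wells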
# T2 sequence (Q00975 whole entry): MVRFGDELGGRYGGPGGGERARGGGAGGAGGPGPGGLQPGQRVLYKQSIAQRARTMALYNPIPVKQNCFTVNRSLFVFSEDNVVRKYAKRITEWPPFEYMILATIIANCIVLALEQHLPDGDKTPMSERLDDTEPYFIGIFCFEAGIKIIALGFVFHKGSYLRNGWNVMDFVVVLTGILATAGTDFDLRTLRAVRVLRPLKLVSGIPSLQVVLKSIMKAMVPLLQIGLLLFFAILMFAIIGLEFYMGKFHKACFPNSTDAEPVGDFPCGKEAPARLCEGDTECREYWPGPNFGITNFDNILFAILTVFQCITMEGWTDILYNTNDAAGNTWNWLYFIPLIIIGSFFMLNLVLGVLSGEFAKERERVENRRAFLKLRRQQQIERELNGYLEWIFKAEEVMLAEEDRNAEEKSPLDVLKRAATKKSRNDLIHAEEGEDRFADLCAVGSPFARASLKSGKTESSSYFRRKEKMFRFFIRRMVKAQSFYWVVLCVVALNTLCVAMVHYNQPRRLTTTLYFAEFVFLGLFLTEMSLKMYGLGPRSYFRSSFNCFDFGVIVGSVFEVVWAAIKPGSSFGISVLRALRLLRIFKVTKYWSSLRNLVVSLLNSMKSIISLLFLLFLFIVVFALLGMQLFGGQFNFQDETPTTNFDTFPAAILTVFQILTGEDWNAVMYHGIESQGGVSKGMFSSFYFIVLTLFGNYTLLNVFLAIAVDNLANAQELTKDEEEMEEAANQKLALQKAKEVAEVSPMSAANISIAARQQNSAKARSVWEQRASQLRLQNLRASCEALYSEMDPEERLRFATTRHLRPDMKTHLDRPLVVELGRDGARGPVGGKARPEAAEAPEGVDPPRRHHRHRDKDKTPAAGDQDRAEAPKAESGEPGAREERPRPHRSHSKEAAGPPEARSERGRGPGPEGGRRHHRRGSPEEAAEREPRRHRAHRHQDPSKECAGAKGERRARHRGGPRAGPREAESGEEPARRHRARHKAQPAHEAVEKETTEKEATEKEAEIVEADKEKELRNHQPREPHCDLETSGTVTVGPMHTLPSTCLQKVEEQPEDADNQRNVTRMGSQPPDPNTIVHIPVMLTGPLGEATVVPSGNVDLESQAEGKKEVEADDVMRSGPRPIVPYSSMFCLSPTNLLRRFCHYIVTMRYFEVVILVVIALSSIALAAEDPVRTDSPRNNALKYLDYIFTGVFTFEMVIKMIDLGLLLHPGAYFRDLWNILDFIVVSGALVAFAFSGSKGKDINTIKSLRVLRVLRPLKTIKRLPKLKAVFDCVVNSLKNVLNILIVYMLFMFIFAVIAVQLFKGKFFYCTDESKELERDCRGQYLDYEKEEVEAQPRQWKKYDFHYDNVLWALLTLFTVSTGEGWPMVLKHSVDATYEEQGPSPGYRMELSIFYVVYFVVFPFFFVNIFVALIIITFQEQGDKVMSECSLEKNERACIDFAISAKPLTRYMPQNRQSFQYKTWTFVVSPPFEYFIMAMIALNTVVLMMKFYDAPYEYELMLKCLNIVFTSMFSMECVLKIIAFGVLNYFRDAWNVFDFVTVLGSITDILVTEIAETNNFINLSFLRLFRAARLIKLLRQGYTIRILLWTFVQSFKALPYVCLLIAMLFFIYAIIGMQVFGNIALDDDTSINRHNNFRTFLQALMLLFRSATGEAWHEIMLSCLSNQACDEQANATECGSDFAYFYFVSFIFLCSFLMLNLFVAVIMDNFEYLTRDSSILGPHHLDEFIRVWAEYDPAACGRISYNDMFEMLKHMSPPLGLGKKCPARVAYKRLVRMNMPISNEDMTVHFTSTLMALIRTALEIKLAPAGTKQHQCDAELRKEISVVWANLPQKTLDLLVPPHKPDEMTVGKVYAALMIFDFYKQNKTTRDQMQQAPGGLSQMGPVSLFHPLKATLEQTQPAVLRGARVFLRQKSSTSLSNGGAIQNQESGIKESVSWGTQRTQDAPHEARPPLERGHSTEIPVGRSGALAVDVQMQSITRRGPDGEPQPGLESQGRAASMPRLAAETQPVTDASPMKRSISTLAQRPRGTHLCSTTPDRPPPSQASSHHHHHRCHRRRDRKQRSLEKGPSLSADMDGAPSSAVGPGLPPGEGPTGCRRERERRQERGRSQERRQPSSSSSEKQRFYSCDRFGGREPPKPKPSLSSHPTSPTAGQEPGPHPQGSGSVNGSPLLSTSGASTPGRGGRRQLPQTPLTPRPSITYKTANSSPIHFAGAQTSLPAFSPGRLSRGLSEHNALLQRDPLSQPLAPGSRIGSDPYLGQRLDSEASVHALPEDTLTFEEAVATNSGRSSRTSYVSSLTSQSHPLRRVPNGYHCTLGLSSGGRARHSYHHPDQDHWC
# T2 sequence (Q02410 whole entry): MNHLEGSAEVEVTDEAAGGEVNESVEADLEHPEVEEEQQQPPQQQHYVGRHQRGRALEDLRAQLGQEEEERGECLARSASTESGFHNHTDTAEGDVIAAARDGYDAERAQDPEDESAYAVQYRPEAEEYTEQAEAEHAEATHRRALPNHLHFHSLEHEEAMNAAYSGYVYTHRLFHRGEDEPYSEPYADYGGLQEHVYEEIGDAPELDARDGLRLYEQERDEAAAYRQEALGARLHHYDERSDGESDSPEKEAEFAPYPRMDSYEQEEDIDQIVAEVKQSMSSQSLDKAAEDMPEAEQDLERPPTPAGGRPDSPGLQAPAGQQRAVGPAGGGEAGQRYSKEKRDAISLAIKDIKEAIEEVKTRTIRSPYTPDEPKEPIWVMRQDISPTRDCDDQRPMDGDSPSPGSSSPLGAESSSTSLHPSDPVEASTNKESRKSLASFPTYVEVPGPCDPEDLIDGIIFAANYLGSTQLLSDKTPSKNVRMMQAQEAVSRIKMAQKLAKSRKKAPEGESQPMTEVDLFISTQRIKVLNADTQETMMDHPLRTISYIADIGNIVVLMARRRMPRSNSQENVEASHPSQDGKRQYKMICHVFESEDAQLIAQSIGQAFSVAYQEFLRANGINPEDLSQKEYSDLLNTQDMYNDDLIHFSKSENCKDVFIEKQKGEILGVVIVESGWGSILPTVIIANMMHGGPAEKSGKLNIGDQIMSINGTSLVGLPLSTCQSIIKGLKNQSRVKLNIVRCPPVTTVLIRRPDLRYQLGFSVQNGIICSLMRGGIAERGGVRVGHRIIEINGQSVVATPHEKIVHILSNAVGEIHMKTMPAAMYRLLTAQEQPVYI
# T9 sequence (P41145 whole entry): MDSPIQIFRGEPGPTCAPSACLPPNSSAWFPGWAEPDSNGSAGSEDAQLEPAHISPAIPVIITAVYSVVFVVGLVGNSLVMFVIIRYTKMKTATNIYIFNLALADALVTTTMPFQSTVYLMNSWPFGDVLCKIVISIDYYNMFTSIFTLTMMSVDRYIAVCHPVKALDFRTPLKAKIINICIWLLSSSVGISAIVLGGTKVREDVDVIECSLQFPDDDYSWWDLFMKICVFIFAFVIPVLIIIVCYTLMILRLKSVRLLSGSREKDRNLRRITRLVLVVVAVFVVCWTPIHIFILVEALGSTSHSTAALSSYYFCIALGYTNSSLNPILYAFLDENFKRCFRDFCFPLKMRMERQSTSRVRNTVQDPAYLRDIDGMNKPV
# T4 sequence (P11940 whole entry): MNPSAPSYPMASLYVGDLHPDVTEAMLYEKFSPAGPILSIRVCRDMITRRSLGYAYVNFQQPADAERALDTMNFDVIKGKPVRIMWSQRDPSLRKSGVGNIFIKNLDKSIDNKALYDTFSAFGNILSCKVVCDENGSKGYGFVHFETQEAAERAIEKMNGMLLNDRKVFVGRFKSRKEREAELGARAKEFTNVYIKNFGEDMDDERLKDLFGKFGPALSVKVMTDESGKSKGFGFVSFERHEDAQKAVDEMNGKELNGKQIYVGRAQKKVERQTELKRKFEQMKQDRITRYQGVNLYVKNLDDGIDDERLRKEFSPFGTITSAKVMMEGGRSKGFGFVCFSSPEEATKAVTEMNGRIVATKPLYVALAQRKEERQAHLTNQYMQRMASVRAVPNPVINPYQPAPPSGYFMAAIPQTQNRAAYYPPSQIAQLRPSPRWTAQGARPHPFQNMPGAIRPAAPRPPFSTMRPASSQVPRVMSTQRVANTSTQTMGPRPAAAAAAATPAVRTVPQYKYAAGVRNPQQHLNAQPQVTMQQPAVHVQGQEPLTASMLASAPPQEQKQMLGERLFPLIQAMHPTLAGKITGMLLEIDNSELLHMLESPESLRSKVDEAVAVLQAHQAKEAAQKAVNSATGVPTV
# T1 sequence (P51452 whole entry): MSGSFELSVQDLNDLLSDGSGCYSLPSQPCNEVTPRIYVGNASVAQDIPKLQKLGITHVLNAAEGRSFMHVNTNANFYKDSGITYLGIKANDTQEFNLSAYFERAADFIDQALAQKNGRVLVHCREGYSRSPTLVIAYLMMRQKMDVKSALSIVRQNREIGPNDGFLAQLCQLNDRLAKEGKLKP
# Hexokinase, sequence (Q38C41 whole entry): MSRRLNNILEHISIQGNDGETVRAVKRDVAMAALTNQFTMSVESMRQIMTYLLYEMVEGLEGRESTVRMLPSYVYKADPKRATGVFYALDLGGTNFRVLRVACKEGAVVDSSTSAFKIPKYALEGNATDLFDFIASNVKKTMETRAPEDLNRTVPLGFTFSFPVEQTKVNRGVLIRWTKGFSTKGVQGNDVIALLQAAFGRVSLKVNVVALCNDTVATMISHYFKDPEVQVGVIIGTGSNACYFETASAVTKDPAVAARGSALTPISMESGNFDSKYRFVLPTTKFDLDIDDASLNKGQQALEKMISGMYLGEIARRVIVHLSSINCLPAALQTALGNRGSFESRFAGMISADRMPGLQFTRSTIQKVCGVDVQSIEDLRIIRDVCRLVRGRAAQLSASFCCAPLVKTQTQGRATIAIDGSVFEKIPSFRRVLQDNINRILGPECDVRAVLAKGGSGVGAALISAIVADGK
# Eukaryotic translation initiation factor 4E, sequence (P63073 whole entry): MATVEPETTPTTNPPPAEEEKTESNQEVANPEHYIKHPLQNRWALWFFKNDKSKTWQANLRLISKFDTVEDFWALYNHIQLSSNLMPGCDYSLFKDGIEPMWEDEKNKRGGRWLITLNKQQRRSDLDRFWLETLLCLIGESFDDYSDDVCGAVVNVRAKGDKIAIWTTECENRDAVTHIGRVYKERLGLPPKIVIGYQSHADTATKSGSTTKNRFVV
compound,measurement,setting,value
Cc1c(/N=N/c2c(-c3ccc([N+](=O)[O-])cc3)[nH]n(C(N)=S)c2=O)cccc1[N+](=O)[O-],IC50,[1],3.37 µM (active)
same,IC50,[2],16.3 µM (active)
same,IC50,[3],> 50 µM (inactive)
same,IC50,[4],1.71 µM (active)
same,IC50,[5],7.01 µM (active)
same,IC50,[6],6.05 µM (active)
same,IC50,[7],50 µM (inactive)
same,IC50,[8],> 66 µM (inactive)
same,IC50,[9],> 66 µM (inactive)
CC(C)(C)C1CCc2sc(C(=O)NNC(=O)CCl)cc2C1 (centres undefined),EC50,[10],1.75 µM (active)
same,IC50,[11],3.86 µM (active)
same,EC50,[12],> 60 µM (inconclusive)
same,CC50,[13],3.58 µM (active)
same,AC50,[14],4.29 µM (active)
same,EC50,Protein RecA,1.47 µM (active)
Cc1cccc2sc(N(CCN(C)C)C(=O)c3ccc4ccccc4c3)nc12,AC50,CAAX prenyl protease 2,> 100 µM (inactive)
O=C(Nc1nnc(-c2ccccc2Cl)o1)c1ccc(S(=O)(=O)N2CCCCCC2)cc1,EC50,[15],0.266 µM (active)
same,EC50,Streptococcus,0.793 µM (active)
same,CC50,[16],3.49 µM (active)
same,CC50,[17],7.66 µM (active)
same,CC50,[18],4.8 µM (active)
same,IC50,cells [19],14.2 µM (active)
same,Ki,fMet-Leu-Phe receptor,> 66.7 µM (inactive)
O=C(Nc1ccncc1NC(=O)c1cccc([N+](=O)[O-])c1)c1cccc([N+](=O)[O-])c1,IC50,[2],18.9 µM (active)
same,IC50,[3],> 50 µM (inactive)
CC(C)(C)c1ccc(C(=O)Nc2cc(Cl)c(Br)cc2C(=O)O)cc1,IC50,Hexokinase,0.976 µM (active)
COc1ccc(C(=O)Nc2ccccc2C(=O)N/N=C/c2ccccn2)cc1OC,EC50,cells [20],8.88 µM (active)
same,EC50,[21],1.3 µM (active)
same,EC50,[22],0.298 µM (active)
same,EC50,cells [23],16.6 µM (active)
same,IC50,[24],7.91 µM (active)
same,EC50,Beta-galactosidase,> 31.5 µM (inactive)
same,IC50,[25],> 32 µM
same,CC50,[16],5.29 µM (active)
same,CC50,[17],14.3 µM (active)
same,CC50,[18],> 20 µM (active)
same,IC50,cells [19],36.9 µM (active)
same,AC50,INS1,2.45 µM (active)
OB1OCc2cc(C(F)(F)F)ccc21,IC50,Hexokinase,> 25 µM (inactive)

# — ChEMBL document CHEMBL1201862, “PubChem BioAssay data set” (2004)
